# Assay results taken from paper PMC5740485 (Biochemistry, 2017).
# Where “and” joins values, the source holds several entries; their conditions need not be identical. Equal values may be shown once. Entries after “also recorded” stand apart in the source; their conditions may differ. Read-outs that look alike come from different tables or passages of the source.
# Experiments:
# [1] = target: T1, E. coli dihydrofolate reductase (ecDHFR) (Escherichia coli, UniProt P0ABQ4); assay type: binding; details: 0.1 mM ecDHFR; for ILOE signals with metformin (co-binding): 5 mM of each ligand (Fenbufen 2 mM), pH 6.8, 25 °C
# T1 sequence (P0ABQ4 1-159): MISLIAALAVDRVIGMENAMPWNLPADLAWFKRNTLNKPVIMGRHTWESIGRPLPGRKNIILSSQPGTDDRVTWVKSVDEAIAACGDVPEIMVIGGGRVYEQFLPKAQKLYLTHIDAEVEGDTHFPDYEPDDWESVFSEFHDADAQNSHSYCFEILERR
# [2] = target: T1, E. coli dihydrofolate reductase (ecDHFR); experiment: Steady state kinetics of ecDHFR inhibition; assay type: biochemical; details: for α value (cooperative inhibition by MFM and pABG): Dixon plots, DHF 7.5 μM, α > 1 = negative cooperativity; for Ki: 30 °C, pH 7.0; for mode of inhibition: versus DHF, Lineweaver-Burk plot
# [3] = target: T1, E. coli dihydrofolate reductase (ecDHFR)
# L. casei DHFR = details: cited from earlier work
# [4] = target: T1, E. coli dihydrofolate reductase (ecDHFR); experiment: biochemical; details: NMR
# [5] = target: T1, E. coli dihydrofolate reductase (ecDHFR); experiment: Isothermal titration calorimetry; assay type: binding
# [6] = Ki, Lineweaver-Burk slope vs inhibitor concentration, NADPH 70 μM
compound,measurement,setting,value
O=C(O)c1cc(-c2ccc(F)cc2F)ccc1O [Diflunisal],transferred NOE signals,"[1]; screening buffer, 25 °C",transferred NOE signals consistent with binding
"Nc1ccc(C(=O)N[C@@H](CCC(=O)O)C(=O)O)cc1 [pABG, p-aminobenzoyl-L-glutamate]",α value (cooperative inhibition by MFM and pABG),[2]; NADPH 70 μM,3.3 ± 1.3
same,Kd/Ki ratio,"[2]; Kd (NMR, no cofactor) over Ki (NADPH present)",4.4
same,Ki,"[2]; Lineweaver-Burk slope vs inhibitor concentration, NADPH 70 μM",1.8 ± 0.3 mM
same,Ki,"[2]; non-linear global fit of all the data (SAS), NADPH",1.3 ± 0.2 mM
same,Kd,"[3]; NMR, Ile50 resonance, no other ligand, pH 7.2 in D2O",7.64 ± 0.53 mM
same,Kd,"[3]; NMR, Ile61 resonance, no other ligand, pH 7.2 in D2O",8.09 ± 0.52 mM
same,Kd,"[3]; NMR, Ile94 resonance, no other ligand, pH 7.2 in D2O",8 ± 0.37 mM
same,Kd,"[3]; read-out: Kd (mean), mean of NMR values from Ile50, Ile61, Ile94",7.9 mM and 7.91 mM
same,Kd ratio in the absence and presence of NADPH,L. casei DHFR,4.5
same,ILOE signals with metformin (co-binding),[1],ILOE signals connecting the MFM methyl resonances with the pABG aromatic resonances were present
CN(C)C(=N)N=C(N)N [Metformin],α value (cooperative inhibition by MFM and pABG),[2]; NADPH 70 μM,3.3 ± 1.3
same,Ki,[2]; [6],24 ± 7 mM
same,Ki,"[2]; Ki, non-linear global fit of all the data (SAS), NADPH",17.9 mM
same,mode of inhibition,[2]; listed as MFM,competitive binding; also recorded: competitive inhibition
same,affinity relative to DAP (fold weaker),[3]; ecDHFR affinity for MFM versus DAP,~ 20 fold
same,Kd,"[4]; Ile5 resonance, no other ligand, pH 7.2 in D2O",14.8 mM and 15.9 mM
same,Kd,"[4]; Ile50, 75 mM DMBP present",7 ± 0.16 mM
same,Kd,"[4]; Ile50′ (MFM-sensitive resonance), 50 mM pABG present",6.89 ± 0.56 mM
same,Kd,"[4]; Ile50′, 50 mM pABG and 2 mM NADP+ present",5.27 ± 0.71 mM
same,Kd,"[4]; Ile61′ (MFM-sensitive resonance), 50 mM pABG present",5.36 ± 1.15 mM
same,ΔH,"[5]; ITC competitive displacement by DHF, NADP+ present, initial fit with variable ΔH",-1.1 ± 3.2 kcal/mol
same,Kd,"[5]; mean Kd, stated as mean of NMR and ITC displacement studies",17.9 mM
"COc1ccc(C(=O)NCC(=O)O)cc1OC [3,4-Dimethoxyhippurate, 3,4-dimethoxyhippurate]",ILOE signals with metformin (co-binding),[1],weak ILOE cross peaks
"CC(C)c1ccc(C(=O)CCC(=O)O)cc1 [4-isopropyl, 3-(4-isopropylbenozyl)propionate]",ILOE signals with metformin (co-binding),[1],stronger ILOE signals
"Cc1cc(C(=O)CCC(=O)O)c(C)c(C)c1C [2,3,4,5-tetramethyl, 3-(2,3,4,5-tetramethylbenozyl)propionate]",ILOE signals with metformin (co-binding),[1],stronger ILOE signals
"Cc1ccc(C(=O)CCC(=O)O)c(C)c1 [DMBP, 3-(2,4-dimethylbenzoyl)propionate]",Kd,"[3]; NMR serial titration, no other ligand",5.4 mM
"O=C(O)CNC(=O)c1ccccc1 [hippurate, N-benzoylglycine]",ILOE signals with metformin (co-binding),[1],neither transferred NOE nor ILOE MFM-hippurate cross peaks were observed
"[H]/N=C(/N)N/C(=N/[H])NCCc1ccccc1 [Phenformin, phenformin]",Ki,[2]; [6],0.17 ± 0.02 mM
same,inhibition constant relative to metformin (fold lower),[2]; phenformin Ki versus metformin Ki,100 fold
same,mode of inhibition,[2],competitive inhibition
same,Kd,"[5]; Kd, ITC direct titration, cofactor NADP+, pH 7.0, 25° C",0.188 ± 0.018 mM
same,Kd,"[5]; Kd, ITC direct titration, cofactor NADPH, pH 7.0, 25° C",0.098 ± 0.007 mM
same,Kd,"[5]; Kd, ITC direct titration, no cofactor, pH 7.0, 25° C",0.716 ± 0.045 mM
Cc1ccc(C(=O)NCC(=O)O)cc1 [4-methylhippurate],ILOE signals with metformin (co-binding),[1],ILOE signals were obtained
